Among the data in the NIST ThermoML archive (doi:10.1021/je400004j) are surface tension liquid-gas and mass density values, retold here.

± gives the expanded uncertainty stated by the source.

The conditions of this data set: 298.15 K; for surface tension liquid-gas: Ring tensiometer; for mass density: 101.33 kPa, Liquid, Vibrating tube method.

As to `CCOP(=O)([O-])OCC.CCn1cc[n+](CC)c1` [1,3-diethyl-1H-imidazol-3-ium diethyl phosphate], the surface tension liquid-gas (in general, the force per length acting along the surface) is recorded as 35.5 ± 0.5 mN/m and the mass density (as a rule, mass per unit of volume) is given as 1125.96 ± 0.15 kg/m3. Taken in the same sequence, the figures for `COP(=O)([O-])OC.Cn1cc[n+](C)c1` [1,3-dimethylimidazolium dimethylphosphate] were 48.4 ± 0.6 mN/m and 1252.6 ± 0.22 kg/m3. For the molecule `CCCCn1cc[n+](CC)c1.CCOP(=O)([O-])OCC` [1-butyl-3-ethyl-1H-imidazol-3-ium diethyl phosphate], the surface tension liquid-gas stood at 32.2 ± 0.5 mN/m and the mass density worked out at 1083.21 ± 0.1 kg/m3. `CCCCn1cc[n+](C)c1.COP(=O)([O-])OC` [1-butyl-3-methyl-1H-imidazolium dimethylphosphate]: the surface tension liquid-gas is given as 38 ± 0.5 mN/m. `CCCCOP(=O)([O-])OCCCC.CCCCn1cc[n+](C)c1` [1-butyl-3-methylimidazolium dibutyl phosphate]: the surface tension liquid-gas is 29.4 ± 0.4 mN/m and the mass density worked out at 1046.18 ± 0.09 kg/m3. As to `CCOP(=O)([O-])OCC.CCn1cc[n+](C)c1` [1-ethyl-3-methylimidazolium diethyl phosphate], the surface tension liquid-gas was 37.1 ± 0.5 mN/m and the mass density turned out to be 1148.86 ± 0.14 kg/m3. On to `CCn1cc[n+](C)c1.COP(=O)([O-])OC` [1-ethyl-3-methylimidazolium dimethylphosphate], for which the surface tension liquid-gas was 44.3 ± 0.62 mN/m. On to `CCO` [ethanol], for which the surface tension liquid-gas was found to be 21.9 ± 0.3 mN/m and the mass density is listed as 785.83 ± 0.17 kg/m3.

On to `CO` [methanol], for which the surface tension liquid-gas was found to be 22.4 ± 0.3 mN/m and the mass density was 786.55 ± 0.17 kg/m3. For the molecule `O` [water], the surface tension liquid-gas amounted to 71.9 ± 0.9 mN/m.
